# Reference: PubChem BioAssay (NCI)
#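 The compound was tested at five concentrations on cells cultured in 96-well plates, with a 48-hour exposure period. The concentration for 50% growth inhibition is given as GI50. The concentration for full growth arrest is given as TGI.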
# How the values were obtained:
# Test in all cases: NCI-60 cell line screen, 48 h
# SF-539 CNS = test system: SF-539 CNS
# SF-268 CNS = test system: SF-268 CNS
# LOX IMVI melanoma = test system: LOX IMVI melanoma
# UO-31 renal = test system: UO-31 renal
# SK-MEL-28 melanoma = test system: SK-MEL-28 melanoma
# MOLT-4 leukemia = test system: MOLT-4 leukemia
# DU-145 prostate = test system: DU-145 prostate
# SNB-75 CNS = test system: SNB-75 CNS
# T-47D breast = test system: T-47D breast
# MDA-MB-435 = test system: MDA-MB-435
SMILES,GI50 (SF-539 CNS),TGI (SF-539 CNS),GI50 (SF-268 CNS),TGI (SF-268 CNS),GI50 (LOX IMVI melanoma),TGI (LOX IMVI melanoma),GI50 (UO-31 renal),TGI (UO-31 renal),GI50 (SK-MEL-28 melanoma),TGI (SK-MEL-28 melanoma),GI50 (MOLT-4 leukemia),TGI (MOLT-4 leukemia),GI50 (DU-145 prostate),TGI (DU-145 prostate),GI50 (SNB-75 CNS),TGI (SNB-75 CNS),GI50 (T-47D breast),TGI (T-47D breast),GI50 (MDA-MB-435),TGI (MDA-MB-435)
CCC1=C[C@@H]2CN(C1)Cc1c([nH]c3ccccc13)[C@@](C(=O)OC)(c1cc3c(cc1OC)N(C)[C@H]1[C@@](O)(C(=O)OC)[C@H](OC(C)=O)[C@]4(CC)C=CCN5CC[C@]31[C@@H]54)C2,< 0.01 µM,0.0441 µM,< 0.01 µM,14.2 µM,< 0.01 µM,15.5 µM,1.02 µM,18.6 µM,< 0.01 µM,18.2 µM,< 0.01 µM,3.5 µM,< 0.01 µM,< 0.01 µM,< 0.01 µM,7.92 µM,–,–,–,–
NS(=O)(=O)c1ccc(N=Nc2c(O)[nH]c3ccc(C(=O)NCCc4cnc[nH]4)cc23)cc1,> 25 µM,> 25 µM,> 25 µM,> 25 µM,> 25 µM,> 25 µM,> 25 µM,> 25 µM,> 25 µM,> 25 µM,> 25 µM,> 25 µM,> 25 µM,> 25 µM,> 25 µM,> 25 µM,> 25 µM,> 25 µM,> 25 µM,> 25 µM
COc1ccc(CN2C(=O)/C(=C\C(=O)c3ccc(OCCN4CCCC4)cc3)c3ccccc32)cc1,1.82 µM,3.75 µM,13.2 µM,42.7 µM,–,–,1.66 µM,3.11 µM,1.79 µM,3.42 µM,2.91 µM,7.11 µM,2.32 µM,5.65 µM,14.2 µM,30.9 µM,–,–,1.81 µM,3.74 µM
COc1ccc(/C(=C/c2ccc3ccccc3c2)c2nn[nH]n2)cc1OC,2.38 µM,7.94 µM,6.55 µM,> 100 µM,5.63 µM,> 100 µM,5.59 µM,> 100 µM,8.07 µM,> 100 µM,4.16 µM,> 100 µM,3.53 µM,49.2 µM,2.51 µM,> 100 µM,28.2 µM,> 100 µM,–,–
CC1NC(C(=O)O)Cc2cc(O)c(O)cc21 (centres undefined),–,> 100 µM,–,> 100 µM,–,> 100 µM,–,> 100 µM,–,> 100 µM,–,> 100 µM,–,> 100 µM,–,–,–,> 100 µM,–,> 100 µM
CCC1(OC(=O)CNC)C(=O)OCc2c1cc1n(c2=O)Cc2cc3ccccc3nc2-1 (centres undefined),–,< 0.0203 µM,–,0.709 µM,–,0.137 µM,–,0.0856 µM,–,2.7 µM,–,0.0631 µM,–,0.0124 µM,–,0.0842 µM,–,–,–,0.279 µM
COC1=CC(c2ccc[nH]2)=N/C1=C\c1[nH]c(C)c(C(=O)Oc2ccccc2)c1C,0.36 µM,1.63 µM,–,–,0.0197 µM,0.0472 µM,0.15 µM,0.35 µM,0.595 µM,1.99 µM,–,–,0.295 µM,> 100 µM,0.274 µM,–,0.403 µM,1.8 µM,–,–
C=C1C(=O)O[C@@H]2C[C@@H]1CC[C@]1(C)O[C@H]1CC/C(C)=C/CC[C@@]2(C)O,16.5 µM,34.5 µM,19.9 µM,50.5 µM,0.895 µM,4.85 µM,29.5 µM,> 100 µM,–,–,11.7 µM,28.1 µM,–,–,–,–,28.8 µM,58.7 µM,18.3 µM,41.1 µM
NC(CP(=O)(O)O)C(=O)O (centres undefined),–,–,–,> 100 µM,–,> 100 µM,–,> 100 µM,–,> 100 µM,–,> 100 µM,–,> 100 µM,–,> 100 µM,–,> 100 µM,–,> 100 µM
Cc1cncc(-c2nc(NCCc3c[nH]c4ccccc34)c3ncn(C(C)C)c3n2)c1,3.64 µM,12.4 µM,5.93 µM,38.6 µM,4.61 µM,15.5 µM,3.06 µM,12.9 µM,2.52 µM,6.66 µM,–,–,4.41 µM,22.1 µM,4.87 µM,21.1 µM,4.98 µM,19.6 µM,4.6 µM,17 µM
COc1ccc(NC(=S)C#N)cc1,–,> 100 µM,–,> 100 µM,–,> 100 µM,–,–,–,> 100 µM,–,–,–,> 100 µM,–,> 100 µM,–,> 100 µM,–,> 100 µM
O=C1Nc2ccc(O)cc2/C1=C\c1ccncc1,6.11 µM,23.1 µM,12 µM,36.3 µM,12 µM,25.6 µM,14.1 µM,31.8 µM,–,–,–,–,19.5 µM,54.2 µM,–,–,26.9 µM,> 100 µM,18.2 µM,71 µM
CCOC(=O)NC(=O)c1cn(CCCCCCCCCCC(=O)NCCCN2CCN(CCCNC(=O)CCCCCCCCCCn3cc(C(=O)NC(=O)OCC)c(=O)[nH]c3=O)CC2)c(=O)[nH]c1=O,–,> 100 µM,–,> 100 µM,–,> 100 µM,–,> 100 µM,–,> 100 µM,–,> 100 µM,–,–,–,> 100 µM,–,–,–,–
O=C1CC(C(=O)O)Cc2c(Br)ccc(O)c21 (centres undefined),–,–,–,> 100 µM,–,> 100 µM,–,> 100 µM,–,> 100 µM,–,> 100 µM,–,> 100 µM,–,–,–,> 100 µM,–,> 100 µM
C/C=C(\C)c1cc(=O)c2c(C)cc3c(c2o1)C(OC)(OC(C)=O)c1c(O)c(C2CC(C)(N(C)C)C(OC(C)=O)C(C)O2)cc(C2CC(N(C)C)C(OC(C)=O)C(C)O2)c1C3=O (centres undefined),–,–,–,4.89 µM,–,–,–,4.68 µM,–,26.1 µM,–,10.3 µM,–,5.08 µM,–,6.44 µM,–,17.6 µM,–,–
N#CCCN(C1=NN(C(=O)CC(=O)Nc2ccc(Cl)cc2)C(c2ccccc2)C1)c1ccc(Cl)cc1 (centres undefined),–,> 100 µM,–,> 100 µM,–,> 100 µM,–,> 100 µM,–,> 100 µM,–,> 100 µM,–,–,–,> 100 µM,–,–,–,–
CCOC(=O)C1=C(C)NC(C)=C(C(=O)OCCNC(=O)c2ccc(N=[N+]=[N-])cc2)C1c1ccccc1C(F)(F)F (centres undefined),–,> 31.6 µM,–,21.5 µM,–,> 31.6 µM,–,21.5 µM,–,21.5 µM,–,13.5 µM,–,21.5 µM,–,–,–,21.5 µM,–,20.5 µM
O=C(O)CCC(=O)Oc1ccc(O)c2c1CCCC2=O,–,> 100 µM,–,> 100 µM,–,> 100 µM,–,> 100 µM,–,> 100 µM,–,> 100 µM,–,–,–,> 100 µM,–,–,–,–
